Laboratory results: publication PMC13635228 (Nature Communications, 2026)

What was measured:
human C3aR = assay: Transducer-coupling assays taken together; assay type: cell-based
mouse C3aR = assay: Transducer-coupling assays taken together; assay type: cell-based
C3aR = conditions: cited from earlier work

With `NC(N)=NCCC[C@H](NC(=O)COCC(c1ccccc1)c1ccccc1)C(=O)O` [SB290157, reference compound] the “agonist profile, G-protein activation” value (human C3aR; compared to C3a) was “partial agonist profile”, the βarr recruitment response (human C3aR; compared to C3a) was “weak response in βarr recruitment” and the “activation of mouse C3aR” value (mouse C3aR; G protein activation or β-arrestin recruitment) was “did not activate mouse C3aR”. The agonistic activity (C3aR; various cellular assays, ref [45]-[47]) was “agonistic activity”.

In the case of “C3a^-d-Arg: C3a with terminal arginine removed by carboxypeptidases; species not stated”, the “activity at human and mouse C3aR” value (C3aR; ref [25],[30],[67]) is given as “very weak activity”.

In the case of “hC3a: full-length recombinant human complement anaphylatoxin C3a, natural agonist of C3aR, expressed in E. coli”, the efficacy (human C3aR) is reported as “full agonists”, the “potency, human vs. mouse C3a” value (human C3aR) is reported as “more potent” and the “potency and efficacy, human vs. mouse C3a” value (mouse C3aR; mouse C3aR) is reported as “equally potent and efficacious”.

In the case of “mC3a-d-Arg: mouse C3a with terminal arginine removed”, the activity (mouse C3aR; mouse C3aR) is reported as “weak but measurable activity”.

For “mC3a: full-length recombinant mouse complement anaphylatoxin C3a (S1-R78), expressed in E. coli”, the efficacy (human C3aR) was “full agonists” and the “potency and efficacy, human vs. mouse C3a” value (mouse C3aR; mouse C3aR) was “equally potent and efficacious”.
